In patent US8691865B2 (AbbVie Inc., priority 2008, dated 2014):
pIC50: −log10 of the molar value. Like-named read-outs stand apart in the source and are kept apart here.

Target: human Cav2.2 (Homo sapiens, UniProt Q00975)
Assay: Assessment of calcium channel activity using FLIPR (Ca2+ influx in IMR32 cells)
Assay type: cell-based
Conditions: for IC50: read-out: IC50 (μM) or percent inhibition (* indicates 3 minute incubation, otherwise 60 minute), 60 minute pre-incubation with compound, IMR32 cells, 80 mM KCl depolarization
How it was run: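 Human neuroblastoma IMR32 cells were seeded at 1−1.2×10^5 cells/well and cultured 48 h at 37 °C before FLIPR calcium influx measurement. Percent inhibition at each concentration was calculated against the no-inhibitor signal, and IC50 came from sigmoidal dose-response fits.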

human Cav2.2, sequence (Q00975 whole entry): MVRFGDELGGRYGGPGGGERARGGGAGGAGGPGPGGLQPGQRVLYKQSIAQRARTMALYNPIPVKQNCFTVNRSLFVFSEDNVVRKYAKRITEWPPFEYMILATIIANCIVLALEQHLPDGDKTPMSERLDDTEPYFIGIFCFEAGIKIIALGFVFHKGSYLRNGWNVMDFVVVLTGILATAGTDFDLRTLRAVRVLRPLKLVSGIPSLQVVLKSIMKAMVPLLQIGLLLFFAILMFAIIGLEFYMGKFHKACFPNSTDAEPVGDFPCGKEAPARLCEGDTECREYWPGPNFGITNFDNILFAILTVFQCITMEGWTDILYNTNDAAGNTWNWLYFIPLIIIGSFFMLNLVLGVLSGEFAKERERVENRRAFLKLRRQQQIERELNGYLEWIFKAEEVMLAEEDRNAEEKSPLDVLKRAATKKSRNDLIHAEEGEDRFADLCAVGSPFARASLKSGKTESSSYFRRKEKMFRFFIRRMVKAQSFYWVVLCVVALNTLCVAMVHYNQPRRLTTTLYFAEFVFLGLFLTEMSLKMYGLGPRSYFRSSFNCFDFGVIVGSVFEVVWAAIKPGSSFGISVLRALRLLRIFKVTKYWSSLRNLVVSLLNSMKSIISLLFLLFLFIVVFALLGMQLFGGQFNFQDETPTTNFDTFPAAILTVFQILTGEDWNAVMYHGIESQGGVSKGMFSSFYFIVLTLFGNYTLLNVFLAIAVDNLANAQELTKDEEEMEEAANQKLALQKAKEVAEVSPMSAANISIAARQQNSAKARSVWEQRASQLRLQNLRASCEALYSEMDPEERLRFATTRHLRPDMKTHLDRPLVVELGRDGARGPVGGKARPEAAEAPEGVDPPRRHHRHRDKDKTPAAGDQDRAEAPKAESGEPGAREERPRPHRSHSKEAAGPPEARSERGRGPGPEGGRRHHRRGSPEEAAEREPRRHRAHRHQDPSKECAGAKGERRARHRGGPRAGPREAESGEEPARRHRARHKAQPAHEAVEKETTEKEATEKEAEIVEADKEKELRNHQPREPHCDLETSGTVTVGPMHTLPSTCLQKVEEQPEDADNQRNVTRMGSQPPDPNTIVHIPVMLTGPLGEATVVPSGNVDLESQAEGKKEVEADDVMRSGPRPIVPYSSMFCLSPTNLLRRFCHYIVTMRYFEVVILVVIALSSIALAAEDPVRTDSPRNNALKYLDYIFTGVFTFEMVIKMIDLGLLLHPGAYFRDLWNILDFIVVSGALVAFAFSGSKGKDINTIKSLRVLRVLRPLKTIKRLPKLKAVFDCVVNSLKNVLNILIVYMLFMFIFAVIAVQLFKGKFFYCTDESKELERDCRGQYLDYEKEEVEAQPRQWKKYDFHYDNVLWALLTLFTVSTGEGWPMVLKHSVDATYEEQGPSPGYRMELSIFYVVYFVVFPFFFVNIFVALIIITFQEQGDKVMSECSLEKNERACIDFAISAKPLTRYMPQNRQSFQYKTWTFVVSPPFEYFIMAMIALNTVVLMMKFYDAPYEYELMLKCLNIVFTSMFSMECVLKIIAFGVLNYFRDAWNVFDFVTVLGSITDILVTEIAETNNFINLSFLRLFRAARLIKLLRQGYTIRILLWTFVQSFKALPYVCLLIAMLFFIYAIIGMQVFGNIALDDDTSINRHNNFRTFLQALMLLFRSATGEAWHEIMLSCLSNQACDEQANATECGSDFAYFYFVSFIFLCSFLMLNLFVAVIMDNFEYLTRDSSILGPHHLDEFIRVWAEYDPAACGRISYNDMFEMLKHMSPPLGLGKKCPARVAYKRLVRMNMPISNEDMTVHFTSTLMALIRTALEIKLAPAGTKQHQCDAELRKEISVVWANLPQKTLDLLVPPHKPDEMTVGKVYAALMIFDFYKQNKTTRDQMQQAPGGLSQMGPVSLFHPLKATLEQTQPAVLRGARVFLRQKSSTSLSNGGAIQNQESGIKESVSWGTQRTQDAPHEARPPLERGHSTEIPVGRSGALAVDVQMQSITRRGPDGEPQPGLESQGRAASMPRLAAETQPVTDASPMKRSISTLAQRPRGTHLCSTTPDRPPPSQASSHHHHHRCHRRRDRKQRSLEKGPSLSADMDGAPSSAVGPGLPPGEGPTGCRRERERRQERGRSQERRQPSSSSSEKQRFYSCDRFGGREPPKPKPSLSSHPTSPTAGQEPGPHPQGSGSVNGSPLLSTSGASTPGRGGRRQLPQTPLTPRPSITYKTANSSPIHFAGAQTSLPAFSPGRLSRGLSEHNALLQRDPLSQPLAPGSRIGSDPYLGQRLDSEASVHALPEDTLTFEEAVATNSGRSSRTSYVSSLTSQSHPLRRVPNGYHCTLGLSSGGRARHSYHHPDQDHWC
human Cav2.2, sequence (P54289 25-956 partner limits assumed): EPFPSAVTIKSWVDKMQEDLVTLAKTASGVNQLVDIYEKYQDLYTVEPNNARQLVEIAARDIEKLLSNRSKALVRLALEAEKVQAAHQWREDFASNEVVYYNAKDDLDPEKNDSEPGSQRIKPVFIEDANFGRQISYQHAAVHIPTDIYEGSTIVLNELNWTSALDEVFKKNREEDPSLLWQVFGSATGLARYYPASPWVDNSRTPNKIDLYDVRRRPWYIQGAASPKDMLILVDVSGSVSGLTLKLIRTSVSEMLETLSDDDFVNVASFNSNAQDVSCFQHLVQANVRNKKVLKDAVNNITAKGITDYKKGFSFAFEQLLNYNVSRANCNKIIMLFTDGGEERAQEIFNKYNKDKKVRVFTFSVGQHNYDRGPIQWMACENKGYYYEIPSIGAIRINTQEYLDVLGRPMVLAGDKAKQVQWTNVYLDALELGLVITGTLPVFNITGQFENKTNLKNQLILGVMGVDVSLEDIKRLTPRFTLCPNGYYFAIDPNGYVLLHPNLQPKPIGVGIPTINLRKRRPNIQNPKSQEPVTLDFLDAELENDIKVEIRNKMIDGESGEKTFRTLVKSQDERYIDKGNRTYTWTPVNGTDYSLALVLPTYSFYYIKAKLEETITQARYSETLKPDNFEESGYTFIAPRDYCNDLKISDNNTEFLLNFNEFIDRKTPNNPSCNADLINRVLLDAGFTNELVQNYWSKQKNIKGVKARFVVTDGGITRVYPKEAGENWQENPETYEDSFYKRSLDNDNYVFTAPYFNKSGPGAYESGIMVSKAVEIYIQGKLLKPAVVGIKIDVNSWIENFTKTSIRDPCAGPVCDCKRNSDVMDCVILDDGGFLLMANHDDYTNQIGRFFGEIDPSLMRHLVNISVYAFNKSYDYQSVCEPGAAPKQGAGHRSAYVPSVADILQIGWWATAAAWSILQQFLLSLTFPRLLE
human Cav2.2, sequence (P54289 957-1103 partner limits assumed): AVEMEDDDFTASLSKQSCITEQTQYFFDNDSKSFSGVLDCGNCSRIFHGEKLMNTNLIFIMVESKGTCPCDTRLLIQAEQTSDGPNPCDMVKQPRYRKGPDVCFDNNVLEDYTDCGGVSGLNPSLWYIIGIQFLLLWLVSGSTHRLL
human Cav2.2, sequence (P54284 whole entry partner): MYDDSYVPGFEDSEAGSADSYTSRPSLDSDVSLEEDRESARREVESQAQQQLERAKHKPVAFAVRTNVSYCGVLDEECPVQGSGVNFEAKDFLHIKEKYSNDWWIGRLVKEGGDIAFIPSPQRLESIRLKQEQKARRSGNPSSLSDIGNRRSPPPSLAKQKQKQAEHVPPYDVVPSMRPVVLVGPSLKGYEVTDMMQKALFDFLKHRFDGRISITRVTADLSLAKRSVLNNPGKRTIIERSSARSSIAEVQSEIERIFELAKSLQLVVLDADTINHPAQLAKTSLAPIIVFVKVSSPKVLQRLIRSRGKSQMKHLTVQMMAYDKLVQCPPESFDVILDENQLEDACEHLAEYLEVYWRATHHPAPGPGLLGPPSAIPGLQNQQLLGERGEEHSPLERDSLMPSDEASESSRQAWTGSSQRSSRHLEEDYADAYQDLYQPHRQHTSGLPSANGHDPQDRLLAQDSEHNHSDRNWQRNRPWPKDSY

| pIC50 | IC50 | Compound |
| --- | --- | --- |
| 5.80 |  | CC(C)CC(C(=O)NC1CCC2CN(Cc3ccc(F)c(C(F)(F)F)c3)CC21)N(C)C(=O)OC(C)(C)C [Example 312, tert-butyl(S)-1-((3aS,4R,6aR)-2-(4-fluoro-3-(trifluoromethyl)benzyl)octahydrocyclopenta[c]pyrrol-4-ylamino)-4-methyl-1-oxopentan-2-ylmethyl)carbamate] |
| 4.84 |  | O=C(N[C@H]1CC[C@@H]2CN(c3cccc(F)c3)C[C@@H]21)[C@@H]1C[C@@H](F)CN1 [Example 640, (4R)-4-fluoro-N-[(3aR,4S,6aS)-2-(3-fluorophenyl)octahydrocyclopenta[c]pyrrol-4-yl]-L-prolinamide] |
| 5.47 |  | O=S(=O)(N[C@H]1CC[C@@H]2CN(c3cccc(C(F)(F)F)n3)C[C@@H]21)c1ccccc1 [Example 708, N-{(3aR,4S,6aS)-2-[6-(trifluoromethyl)pyridin-2-yl]octahydrocyclopenta[c]pyrrol-4-yl}benzenesulfonamide] |
|  | 1.04 µM | O=C(CCC(c1ccc(F)cc1)c1ccc(F)cc1)N[C@@H]1CC[C@H]2CN(Cc3cccc(C(F)(F)F)c3)C[C@H]21 (relative stereo) [Example 144, 4,4-bis(4-fluorophenyl)-N-{(3aS*,4R*,6aR*)-2-[3-(trifluoromethyl)benzyl]octahydrocyclopenta[c]pyrrol-4-yl}butanamide] |
| 5.67 |  | FC(F)(F)c1cccc(N2C[C@H]3CC[C@H](NCc4nc(-c5ccccc5)[nH]c4Cl)[C@H]3C2)n1 [Example 726, (3aR,4S,6aS)-N-[(5-chloro-2-phenyl-1H-imidazol-4-yl)methyl]-2-[6-(trifluoromethyl)pyridin-2-yl]octahydrocyclopenta[c]pyrrol-4-amine] |
| 5.50 |  | O=S(=O)(N[C@H]1CC[C@@H]2CN(c3cccc(C(F)(F)F)n3)C[C@@H]21)c1ccccc1F [Example 703, 2-fluoro-N-{(3aR,4S,6aS)-2-[6-(trifluoromethyl)pyridin-2-yl]octahydrocyclopenta[c]pyrrol-4-yl}benzenesulfonamide] |
| 5.38 |  | Cc1nc(CN[C@H]2CC[C@@H]3CN(c4cccc(C(F)(F)F)n4)C[C@@H]32)c[nH]1 [Example 676, (3aR,4S,6aS)-N-[(2-methyl-1H-imidazol-4-yl)methyl]-2-[6-(trifluoromethyl)pyridin-2-yl]octahydrocyclopenta[c]pyrrol-4-amine] |
|  | 12.9 µM | CC(C)C[C@@H](C(=O)N[C@@H]1CC[C@H]2CN(Cc3ccccc3)C[C@H]21)N(C)S(C)(=O)=O [Example 168, N^1-[(3aS,4R,6aR)-2-benzyloctahydrocyclopenta[c]pyrrol-4-yl]-N^2-methyl-N^2-(methylsulfonyl)-L-leucinamide] |
|  | 0.71 µM | CC(C)C[C@@H](C(=O)N[C@@H]1CC[C@H]2CN(Cc3ccccc3)C[C@H]21)N(C)C(=O)OC(C)(C)C [Example 151, N^1-[(3aS,4R,6aR)-2-benzyloctahydrocyclopenta[c]pyrrol-4-yl]-N^2-(tert-butyloxycarbonyl)-N^2-methyl-L-leucinamide] |
| 5.72 |  | FC(F)(F)c1cccc(N2C[C@H]3CC[C@H](NCc4ccn[nH]4)[C@H]3C2)n1 [Example 663, (3aR,4S,6aS)-N-(1H-pyrazol-5-ylmethyl)-2-[6-(trifluoromethyl)pyridin-2-yl]octahydrocyclopenta[c]pyrrol-4-amine] |
| 5.47 |  | FC(F)(F)c1cccc(N2C[C@H]3CC[C@H](NCc4c[nH]cn4)[C@H]3C2)n1 [Example 677, (3aR,4S,6aS)-N-(1H-imidazol-4-ylmethyl)-2-[6-(trifluoromethyl)pyridin-2-yl]octahydrocyclopenta[c]pyrrol-4-amine] |
|  | 6.13 µM | CC(C)(C)OC(=O)N1CCCC[C@H]1C(=O)N[C@@H]1CC[C@H]2CN(Cc3ccccc3)C[C@H]21 [Example 231, tert-butyl(2S)-2-({[(3aS,4R,6aR)-2-benzyloctahydrocyclopenta[c]pyrrol-4-yl]amino}carbonyl)piperidine-1-carboxylate] |
| 5.52 |  | O=C(Nc1ccc(Cl)cc1)N[C@H]1CC[C@@H]2CN(c3cccc(C(F)(F)F)n3)C[C@@H]21 [Example 713, 1-(4-chlorophenyl)-3-{(3aR,4S,6aS)-2-[6-(trifluoromethyl)pyridin-2-yl]octahydrocyclopenta[c]pyrrol-4-yl}urea] |
| 6.25 |  | FC(F)(F)c1cccc(N2C[C@H]3CC[C@H](NCc4ccc5nsnc5c4)[C@H]3C2)n1 [Example 732, (3aR,4S,6aS)-N-(2,1,3-benzothiadiazol-5-ylmethyl)-2-[6-(trifluoromethyl)pyridin-2-yl]octahydrocyclopenta[c]pyrrol-4-amine] |
| 5.65 |  | FC(F)(F)c1cccc(N2C[C@H]3CC[C@H](NCc4ncc[nH]4)[C@H]3C2)n1 [Example 675, (3aR,4S,6aS)-N-(1H-imidazol-2-ylmethyl)-2-[6-(trifluoromethyl)pyridin-2-yl]octahydrocyclopenta[c]pyrrol-4-amine] |
|  | 2.8 µM | CCC[C@@H](C(=O)N[C@@H]1CC[C@H]2CN(Cc3ccccc3)C[C@H]21)N(C)C(=O)OC(C)(C)C [Example 233, tert-butyl(S)-1-((3aS,4R,6aR)-2-benzyloctahydrocyclopenta[c]pyrrol-4-ylamino)-1-oxopentan-2-yl(methyl)carbamate] |
| < 4.52 |  | CC(C)CC(=O)N[C@H]1CC[C@@H]2CN(Cc3ccccc3)C[C@@H]21 [Example 230, N-[(3aR,4S,6aS)-2-benzyloctahydrocyclopenta[c]pyrrol-4-yl]-3-methylbutanamide] |
|  | 3.23 µM | O=C(N[C@H]1CC[C@H]2CN(Cc3ccncc3)C[C@H]21)C(C1CCCCC1)C1CCCCC1 [Example 72, 2,2-dicyclohexyl-N-[(3aS,4S,6aR)-2-(pyridin-4-ylmethyl)octahydrocyclopenta[c]pyrrol-4-yl]acetamide] |
| 5.23 |  | O=C(N[C@H]1CC[C@@H]2CN(S(=O)(=O)c3cccc(C(F)(F)F)c3)C[C@@H]21)[C@@H]1CCCN1 [Example 387, N-((3aR,4S,6aS)-2-{[3-(trifluoromethyl)phenyl]sulfonyl}octahydrocyclopenta[c]pyrrol-4-yl)-L-prolinamide] |
|  | 7.8 µM | CCN(CC)[C@H]1CC[C@@H]2CN(S(=O)(=O)c3ccc(C(F)(F)F)cc3Cl)C[C@@H]21 [Example 294, (3aR,4S,6aS)-2-{[2-chloro-4-(trifluoromethyl)phenyl]sulfonyl}-N,N-diethyloctahydrocyclopenta[c]pyrrol-4-amine] |
| 5.95 |  | CC(C)C[C@H](N[C@H]1CC[C@@H]2CN(c3cccc(C(F)(F)F)n3)C[C@@H]21)C(N)=O [Example 706, N^2-{(3aR,4S,6aS)-2-[6-(trifluoromethyl)pyridin-2-yl]octahydrocyclopenta[c]pyrrol-4-yl}-L-leucinamide] |
| 5.50 |  | CCC[C@H](NC)C(=O)N[C@H]1CC[C@@H]2CN(S(=O)(=O)c3ccc(OC(F)(F)F)cc3)C[C@@H]21 [Example 532, N^2-methyl-N^1-((3aR,4S,6aS)-2-{[4-(trifluoromethoxy)phenyl]sulfonyl}octahydrocyclopenta[c]pyrrol-4-yl)-L-norvalinamide] |
|  | 0.61 µM | O=C(CC(c1ccc(F)cc1)c1ccc(F)cc1)N[C@@H]1CC[C@H]2CN(Cc3cccc(C(F)(F)F)c3)C[C@H]21 (relative stereo) [Example 143, 3,3-bis(4-fluorophenyl)-N-{(3aS*,4R*,6aR*)-2-[3-(trifluoromethyl)benzyl]octahydrocyclopenta[c]pyrrol-4-yl}propanamide] |
| < 4.52 |  | CC(C)(C)[C@H](N)C(=O)N[C@H]1CC[C@@H]2CN(Cc3ccccc3)C[C@@H]21 [Example 357, N^1-[(3aR,4S,6aS)-2-benzyloctahydrocyclopenta[c]pyrrol-4-yl]-3-methyl-L-valinamide] |
| 5.56 |  | Fc1ccc2[nH]c(CN[C@H]3CC[C@@H]4CN(c5cccc(OC(F)(F)F)c5)C[C@@H]43)cc2c1 [Example 715, (3aR,4S,6aS)-N-[(5-fluoro-1H-indol-2-yl)methyl]-2-[3-(trifluoromethoxy)phenyl]octahydrocyclopenta[c]pyrrol-4-amine] |
|  | 5.55 µM | CC(C)C[C@@H](N)C(=O)N[C@@H]1CC[C@@H]2CN(Cc3cccc(C(F)(F)F)c3)C[C@@H]21 (stereo in doubt) [Example 159, N^1-{(3aR*,4R*,6aS*)-2-[3-(trifluoromethyl)benzyl]octahydrocyclopenta[c]pyrrol-4-yl}-D-leucinamide] |
|  | 3.5 µM | O=S(=O)(c1cccc(C(F)(F)F)c1)N1C[C@@H]2CC[C@@H](NC(c3ccccc3)c3ccccc3)[C@@H]2C1 [Example 467, (3aS,4R,6aR)-N-benzhydryl-2-{[3-(trifluoromethyl)phenyl]sulfonyl}octahydrocyclopenta[c]pyrrol-4-amine] |
| 6.18 |  | O=C(CC(c1ccccc1)c1ccccc1)N[C@H]1CC[C@H]2CN(Cc3cccc(C(F)(F)F)c3)C[C@H]21 (relative stereo) [Example 131, 3,3-diphenyl-N-{(3aS*,4S*,6aR*)-2-[3-(trifluoromethyl)benzyl]octahydrocyclopenta[c]pyrrol-4-yl}propanamide] |
| 4.80 |  | CC(C)N[C@@H](CC(C)(C)C)C(=O)N[C@H]1CC[C@@H]2CN(C(=O)[C@H](Cc3ccccc3)NC(C)C)C[C@@H]21 [Example 489, N^2-isopropyl-N^1-[(3aR,4S,6aS)-2-(N-isopropyl-L-phenylalanyl)octahydrocyclopenta[c]pyrrol-4-yl]-4-methyl-L-leucinamide] |
|  | 4.13 µM | CC[C@H](C(=O)N[C@H]1CC[C@H]2CN([C@@H](C)c3ccccc3)C[C@H]21)c1ccccc1 [Example 212, (2S)-2-phenyl-N-{(3aS,4S,6aR)-2-[(1S)-1-phenylethyl]octahydrocyclopenta[c]pyrrol-4-yl}butanamide] |

| Compound | pIC50 | IC50 |
| --- | --- | --- |
| N^2-isopropyl-4-methyl-N^1-{(3aR,4S,6aS)-2-[2-(methylsulfonyl)pyrimidin-5-yl]octahydrocyclopenta[c]pyrrol-4-yl}-L-leucinamide [Example 493] |  | 5.08 µM |
